Test [1] relates to erythroid progenitor cells (EPCs). As to the kind of experiment: Fetal hemoglobin (HbF) ELISA in day 7 erythroid progenitor cells.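 Further: for fetal hemoglobin induction normalized to vehicle-treated cells.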 It counts as cell-based, human. To be noted: Homo sapiens, Erythroid progenitor cell, HbF ELISA, day 7 EPCs, 5 days; read-out: EPC ELISA (pEC50 category) (converted). In outline: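 Read-out was OD450 from an HRP/TMB sandwich ELISA on lysates, normalized to DMSO-only control wells. Thawed day 7 EPCs from human marrow CD34+ cells had been treated for 5 days at 37° C with Compound A, 22 concentrations […].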
A general note: In an ELISA, binding on a coated surface is turned into a signal by an enzyme label.

In a further test the target is DNMT1 (Homo sapiens, UniProt P26358). As to the kind of experiment: DNMT1 biochemical activity, breaklight assay and/or SPA assay. To be noted: binned activity in either the breaklight or the SPA assay; for IC50: read-out: DNMT1 BioChemical (pIC50 category) (converted).
Sequence of DNMT1 (P26358 whole entry, looked up): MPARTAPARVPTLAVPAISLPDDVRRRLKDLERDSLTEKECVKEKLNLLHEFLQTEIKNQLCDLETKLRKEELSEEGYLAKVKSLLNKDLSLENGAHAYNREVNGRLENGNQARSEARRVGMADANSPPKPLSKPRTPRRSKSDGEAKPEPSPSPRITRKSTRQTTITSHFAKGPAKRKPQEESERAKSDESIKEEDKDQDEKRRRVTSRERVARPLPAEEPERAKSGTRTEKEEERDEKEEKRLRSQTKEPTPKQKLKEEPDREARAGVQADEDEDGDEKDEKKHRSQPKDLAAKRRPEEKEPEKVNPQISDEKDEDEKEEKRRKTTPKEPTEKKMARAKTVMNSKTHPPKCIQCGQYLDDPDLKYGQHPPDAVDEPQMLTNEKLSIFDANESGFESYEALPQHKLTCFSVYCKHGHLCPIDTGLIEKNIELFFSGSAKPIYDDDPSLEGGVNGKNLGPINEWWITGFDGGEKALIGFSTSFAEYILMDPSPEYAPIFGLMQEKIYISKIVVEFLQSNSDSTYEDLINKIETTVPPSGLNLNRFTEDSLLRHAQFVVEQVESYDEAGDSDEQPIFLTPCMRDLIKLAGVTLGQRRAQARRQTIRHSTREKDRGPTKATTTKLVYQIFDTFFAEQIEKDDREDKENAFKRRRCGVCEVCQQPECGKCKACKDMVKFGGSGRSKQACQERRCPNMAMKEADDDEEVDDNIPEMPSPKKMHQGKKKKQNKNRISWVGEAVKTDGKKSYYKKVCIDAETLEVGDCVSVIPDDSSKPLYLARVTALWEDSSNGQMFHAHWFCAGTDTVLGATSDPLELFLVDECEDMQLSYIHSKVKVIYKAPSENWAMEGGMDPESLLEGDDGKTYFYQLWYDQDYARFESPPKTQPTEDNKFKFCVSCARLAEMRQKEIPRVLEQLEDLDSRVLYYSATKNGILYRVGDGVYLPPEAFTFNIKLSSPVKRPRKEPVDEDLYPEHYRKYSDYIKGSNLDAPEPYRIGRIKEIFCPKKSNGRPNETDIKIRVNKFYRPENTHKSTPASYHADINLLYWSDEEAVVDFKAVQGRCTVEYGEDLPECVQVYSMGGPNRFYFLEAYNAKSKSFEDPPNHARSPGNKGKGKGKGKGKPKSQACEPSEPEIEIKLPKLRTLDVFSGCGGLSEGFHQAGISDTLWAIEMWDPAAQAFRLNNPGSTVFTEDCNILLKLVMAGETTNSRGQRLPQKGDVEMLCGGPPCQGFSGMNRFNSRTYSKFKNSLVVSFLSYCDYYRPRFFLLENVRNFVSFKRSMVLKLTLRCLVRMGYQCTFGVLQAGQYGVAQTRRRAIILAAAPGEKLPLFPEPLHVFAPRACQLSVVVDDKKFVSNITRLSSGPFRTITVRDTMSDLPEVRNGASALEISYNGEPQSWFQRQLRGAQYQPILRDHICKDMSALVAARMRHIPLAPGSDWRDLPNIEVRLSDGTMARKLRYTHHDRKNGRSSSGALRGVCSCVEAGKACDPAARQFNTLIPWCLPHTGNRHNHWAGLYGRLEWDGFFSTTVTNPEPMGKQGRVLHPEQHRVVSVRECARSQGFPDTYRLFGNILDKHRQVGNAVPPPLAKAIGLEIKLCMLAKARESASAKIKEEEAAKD

Counter-ions that a name gives are not always drawn.

As to `CCc1c(C#N)c(SC(C(N)=O)c2ccccc2)nc(N(C)CCNCC(C)(C)C)c1C#N` (stereo not drawn) [Example 488, 2-((3,5-dicyano-4-ethyl-6-(methyl(2-(neopentylamino)ethyl)amino)pyridin-2-yl)thio)-2-phenylacetamide], the EC50 in test [1] is under 316 nM. Also, the “DNMT1 BioChemical (pIC50 category)” value on DNMT1 is recorded as “D (Category D: ≥6.5)”.
Taken in the same sequence, the figures for `CCc1c(C#N)c(S[C@@H](C(N)=O)c2ccccc2)nc(N(C)CCO)c1C#N` (single isomer, unassigned) [Example 431] were under 316 nM and “D (Category D: ≥6.5)”.
Taken in the same sequence, the figures for `CCc1c(C#N)c(S[C@H](C(N)=O)c2ccccc2)nc(N2CC(N)C2)c1C#N` (stereo in doubt) [Example 635, 2-((6-(3-aminoazetidin-1-yl)-3,5-dicyano-4-ethylpyridin-2-yl)thio)-2-phenylacetamide] were 316 to 1000 nM and “D (Category D: ≥6.5)”.
With `CCCS(=O)(=O)N1CCN(c2nc(SC(C(N)=O)c3ccccc3)c(C#N)c(CC)c2C#N)CC1` (stereo not drawn) [Example 158, 2-((3,5-Dicyano-4-ethyl-6-(4-(propylsulfonyl)piperazin-1-yl)pyridin-2-yl)thio)-2-phenylacetamide], the EC50 in test [1] is under 316 nM. Besides, on DNMT1, the IC50 was 316 to 1000 nM.
As to `CCc1c(C#N)c(SC(C(N)=O)c2ccccc2)nc(N2CCC(NC(=O)[C@@H](C)N)CC2)c1C#N` (stereo partly drawn) [Example 366, (2R)-2-Amino-N-(1-(6-((2-amino-2-oxo-1-phenylethyl)thio)-3,5-dicyano-4-ethylpyridin-2-yl)piperidin-4-yl)propanamide, Hydrochloride], the EC50 in test [1] was under 316 nM. Besides, on DNMT1, the “DNMT1 BioChemical (pIC50 category)” value was “D (Category D: ≥6.5)”.
For `CCc1c(C#N)c(SC(C(N)=O)c2ccc(C(N)=O)cc2)nc(N2CCCN(C)CC2)c1C#N` (stereo not drawn) [Example 368, 4-(2-Amino-1-((3,5-dicyano-4-ethyl-6-(4-methyl-1,4-diazepan-1-yl)pyridin-2-yl)thio)-2-oxoethyl)benzamide], in test [1], the EC50 is over 31600 nM. For the same compound, the “DNMT1 BioChemical (pIC50 category)” value on DNMT1 was “D (Category D: ≥6.5)”.
`CCc1c(C#N)c(S[C@@H](C(N)=O)c2ccccc2)nc(N2CC[C@H](N)[C@H](F)C2)c1C#N` [Example 509, (R)-2-((6-((3R,4S)-4-amino-3-fluoropiperidin-1-yl)-3,5-dicyano-4-ethylpyridin-2-yl)thio)-2-phenylacetamide • (0.67)2,2,2-trifluoroacetate • (0.33)methanesulfonate]: the EC50 in test [1] was under 316 nM. In addition, at DNMT1, the “DNMT1 BioChemical (pIC50 category)” value was “D (Category D: ≥6.5)”.
Regarding `CCc1c(C#N)c(SCCN(C)C)nc(SC(C(N)=O)c2ccccc2)c1C#N` (stereo not drawn) [Example 218, 2-((3,5-Dicyano-6-((2-(dimethylamino)ethyl)thio)-4-ethylpyridin-2-yl)thio)-2-phenylacetamide], the EC50 in test [1] is under 316 nM. Moreover, on DNMT1, the IC50 was 316 to 1000 nM.
Regarding `CCc1c(C#N)c(SC(C(N)=O)c2ccccc2)nc(N2CCC(NC)CC2)c1C#N` (stereo not drawn) [Example 547, 2-((3,5-dicyano-4-ethyl-6-(4-(methylamino)piperidin-1-yl)pyridin-2-yl)thio)-2-phenylacetamide], the EC50 in test [1] is under 316 nM. Further, on DNMT1, the “DNMT1 BioChemical (pIC50 category)” value is “D (Category D: ≥6.5)”.
Turning to `CCc1c(C#N)c(SC(C(N)=O)c2ccccc2)nc(N2CCC3(CC2)COC(=O)N3)c1C#N` (stereo not drawn) [Example 241, 2-((3,5-Dicyano-4-ethyl-6-(2-oxo-3-oxa-1,8-diazaspiro[4.5]decan-8-yl)pyridin-2-yl)thio)-2-phenylacetamide], the EC50 in test [1] is 1000 to 31600 nM. In addition, on DNMT1, the IC50 was 316 to 1000 nM.
Consider `CCc1c(C#N)c(SC(C(N)=O)c2ccccc2)nc(N2CCS(=O)(=O)CC2)c1C#N` (stereo not drawn) [Example 166, 2-((3,5-Dicyano-6-(1,1-dioxidothiomorpholino)-4-ethylpyridin-2-yl)thio)-2-phenylacetamide], for which, in test [1], the EC50 was under 316 nM. The IC50 on DNMT1 is 316 to 1000 nM.
The like results for `CCc1c(C#N)c(SC(C(N)=O)c2ccc(F)cn2)nc(N2CCC(N3CCCC3)CC2)c1C#N` (stereo not drawn) [Example 211, 2-((3,5-Dicyano-4-ethyl-6-(4-(pyrrolidin-1-yl)piperidin-1-yl)pyridin-2-yl)thio)-2-(5-fluoropyridin-2-yl)acetamide, Formic Acid Salt] were, in that order, under 316 nM and 316 to 1000 nM.
`CN(C)c1nc(SC(C(N)=O)c2ccncc2)c(C#N)c(C2CC2)c1C#N` (stereo not drawn) [Example 26, 2-((3,5-dicyano-4-cyclopropyl-6-(dimethylamino)pyridin-2-yl)thio)-2-(pyridin-4-yl)acetamide]: the EC50 in test [1] is over 31600 nM. On DNMT1, the IC50 is 316 to 1000 nM.
With `CCc1c(C#N)c(SC(C(N)=O)c2ccccc2)nc(N2CCN(Cc3ccc[nH]3)CC2)c1C#N` (stereo not drawn) [Example 177, 2-((6-(4-((1H-Pyrrol-2-yl)methyl)piperazin-1-yl)-3,5-dicyano-4-ethylpyridin-2-yl)thio)-2-phenylacetamide], in test [1], the EC50 is 1000 to 31600 nM. For the same compound, on DNMT1, the IC50 is 316 to 1000 nM.
Turning to `CCc1c(C#N)c(SC(C(N)=O)c2ccccc2)nc(N(C)CCN)c1C#N` (stereo not drawn) [Example 144, 2-((6-((2-Aminoethyl)(methyl)amino)-3,5-dicyano-4-ethylpyridin-2-yl)thio)-2-phenylacetamide, Trifluoroacetic Acid Salt], the EC50 in test [1] is under 316 nM. Moreover, at DNMT1, the “DNMT1 BioChemical (pIC50 category)” value was “D (Category D: ≥6.5)”.
Taken in the same sequence, the figures for `CCc1c(C#N)c(SCc2ccc(N(C)S(C)(=O)=O)cc2)nc(N(C)CCNCCOC)c1C#N` [Example 480] were 316 to 1000 nM and “D (Category D: ≥6.5)”.
Consider `CCc1c(C)c(N2CCC(N)CC2)nc(SC(C(N)=O)c2ccccc2)c1C#N` (stereo not drawn) [Example 376, 2-(6-(4-Aminopiperidin-1-yl)-3-cyano-4-ethyl-5-methylpyridin-2-ylthio)-2-phenylacetamide], for which, in test [1], the EC50 was 316 to 1000 nM. At DNMT1, the IC50 was 316 to 1000 nM.
For `CCc1c(C#N)c(SC(C(N)=O)c2ccccc2)nc(N2CC[C@@H](OP(=O)(O)O)C2)c1C#N` (stereo partly drawn) [Example 416, (3R)-1-(6-((2-amino-2-oxo-1-phenylethyl)thio)-3,5-dicyano-4-ethylpyridin-2-yl)pyrrolidin-3-yl dihydrogen phosphate], the EC50 in test [1] is 1000 to 31600 nM. The IC50 at DNMT1 was 1000 to 31600 nM.
Consider `CCc1c(C#N)c(SC(C(N)=O)c2ccccc2)nc(N(C)CCN2CC[C@@H](N)C2)c1C#N` (stereo partly drawn) [Example 529, 2-((6-((2-((R)-3-aminopyrrolidin-1-yl)ethyl)(methyl)amino)-3,5-dicyano-4-ethylpyridin-2-yl)thio)-2-phenylacetamide], for which the EC50 in test [1] is 316 to 1000 nM. Also, at DNMT1, the “DNMT1 BioChemical (pIC50 category)” value is reported as “D (Category D: ≥6.5)”.
The like results for `CCc1c(C#N)c(SC(C(N)=O)c2ccccc2)nc(N2CCO[C@@H](CNC(=O)C(C)(C)N)C2)c1C#N` (stereo partly drawn) [Example 575, 2-amino-N-(((2S)-4-(6-((2-amino-2-oxo-1-phenylethyl)thio)-3,5-dicyano-4-ethylpyridin-2-yl)morpholin-2-yl)methyl)-2-methylpropanamide] were, in that order, under 316 nM and “D (Category D: ≥6.5)”.
Taken in the same sequence, the figures for `CCc1c(C#N)c(SC(C(N)=O)c2ccccc2)nc(N2CCC(NCC(N)=O)CC2)c1C#N` (stereo not drawn) [Example 393, 2-((6-(4-((2-Amino-2-oxoethyl)amino)piperidin-1-yl)-3,5-dicyano-4-ethylpyridin-2-yl)thio)-2-phenylacetamide] were 316 to 1000 nM and “D (Category D: ≥6.5)”.
